Format in all cases: functional
For test [1], the system named is Puccinia recondita. The test is described as follows: Fungicidal activity against Puccinia recondita spores inoculated on leaves of compound pre-treated 1.5 leaf-stage wheat plants assessed as wheat brown rust disease control level at 25 ppm measured after 8 days post fungal inoculation.
Test [2] has as its system Podosphaera xanthii. Put plainly: Fungicidal activity against Podosphaera xanthii (powdery mildew) spores inoculated on leaves of compound pre-treated 1.5 leaf-stage cucumber plants assessed as powdery mildew disease control level at 250 ppm measured after 7 days post fungal inoculation.
For test [3], the system named is Botrytis cinerea. Put plainly: Fungicidal activity against Botryotinia fuckeliana spores inoculated on leaves of compound pre-treated seed-leaf stage kidney beans assessed as gray mold disease control level at 62.5 ppm measured after 4 days post fungal inoculation.
Test [4] has as its system Pyricularia grisea. The test is described as follows: Fungicidal activity against Magnaporthe grisea spores inoculated on leaves of compound pre-treated 2 or 3 leaf-stage rice plants assessed as rice blast disease control level at 250 ppm measured after 7 days post fungal inoculation.
Test [5] concerns Pyricularia grisea. The test is described as follows: Fungicidal activity against Magnaporthe grisea spores inoculated on leaves of compound pre-treated 2 or 3 leaf-stage rice plants assessed as rice blast disease control level at 50 ppm measured after 7 days post fungal inoculation.
Test [6] concerns Podosphaera xanthii. Put plainly: Fungicidal activity against Podosphaera xanthii (powdery mildew) spores inoculated on leaves of compound pre-treated 1.5 leaf-stage cucumber plants assessed as powdery mildew disease control level at 25 ppm measured after 7 days post fungal inoculation.
Test [7] relates to Botrytis cinerea. Put plainly: Fungicidal activity against Botryotinia fuckeliana spores inoculated on leaves of compound pre-treated seed-leaf stage kidney beans assessed as gray mold disease control level at 500 ppm measured after 4 days post fungal inoculation.
The test system of test [8] is Puccinia recondita. Put plainly: Fungicidal activity against Puccinia recondita spores inoculated on leaves of compound pre-treated 1.5 leaf-stage wheat plants assessed as wheat brown rust disease control level at 250 ppm measured after 8 days post fungal inoculation.

For `CC1=C(C(=O)Nc2ccsc2C(C)CC(C)C)SCCO1` (stereo not given), the Activity result in test [1], in test [2], in test [3] and in test [4] was “>=95%” in each case.
For `CC1=C(C(=O)Nc2ccsc2C(C)CC(C)C)CCCO1` (stereo not given), the Activity entry in test [5] is reported as “>=95%”; in test [1], “>=95%”; in test [6], “>=50%”; in test [3], “>=95%”.
Regarding `CC(C)CC(C)c1sccc1NC(=O)c1ccccc1Cl` (stereo not given), the Activity entry is on record as “>=95%” in test [1], “>=50%” in test [6], “>=95%” in test [7] and less than 95% in test [4].
On to `CC(C)CC(C)c1sccc1NC(=O)c1nccnc1Cl` (stereo not given), for which the Activity entry in test [1] is “>=95%”; in test [2] it was less than 95%; in test [3], “>=95%”; in test [4], “>=95%”.
As to `Cc1occc1C(=O)Nc1ccsc1C(C)CC(C)C` (stereo not given), the Activity result in test [5], in test [1], in test [6] and in test [3] was “>=95%” each time.
With `CC(C)CC(C)c1sccc1NC(=O)c1cccnc1Cl` (stereo not given), the Activity result in test [6] was “>=95%”; in test [3], “>=50%”.
`Cc1nc(C(F)F)c(C(=O)Nc2ccsc2C(C)CC(C)C)s1` (stereo not given): the Activity entry in test [5], in test [1], in test [6] and in test [3] was “>=95%” throughout.
On to `Cc1nc(C(F)(F)F)c(C(=O)Nc2ccsc2C(C)CC(C)C)s1` (stereo not given), for which the Activity result in test [1], in test [6] and in test [3] was “>=95%” each time.
In the case of `Cc1nn(C)cc1C(=O)Nc1ccsc1C(C)CC(C)C` (stereo not given), the Activity result is “>=50%” in test [5], “>=95%” in test [1], “>=95%” in test [2] and “>=95%” in test [3].
Turning to `CC(C)CC(C)c1sccc1NC(=O)c1cn(C)nc1Cl` (stereo not given), the Activity result in test [5] is on record as “>=50%”; in test [1], “>=95%”; in test [6], “>=50%”; in test [3], “>=95%”.
For `CC(C)CC(C)c1sccc1NC(=O)c1cn(C)nc1C(F)F` (stereo not given), the Activity result in test [5], in test [1], in test [6] and in test [3] was “>=95%” throughout.
In the case of `CC(C)CC(C)c1ccccc1NC(=O)c1cn(C)nc1C(F)(F)F` (stereo not given), the Activity entry in test [5], in test [1], in test [6] and in test [3] was “>=95%” each time.
For `Cc1ccsc1C(=O)Nc1ccsc1C(C)CC(C)C` (stereo not given), the Activity entry in test [5], in test [1], in test [6] and in test [3] was “>=95%” in each case.
As to `CCC(C)CC(C)c1sccc1NC(=O)c1cn(C)nc1C(F)(F)F` (stereo not given), the Activity entry in test [5] is recorded as “>=95%”; in test [1], “>=95%”; in test [6], “>=95%”; in test [3], “>=50%”.
`CC(CC(C)(C)C)c1sccc1NC(=O)c1cn(C)nc1C(F)(F)F` (stereo not given): the Activity result is on record as “>=95%” in test [1], “>=95%” in test [6], less than 95% in test [7] and less than 95% in test [4].
As to `Cc1nc(C)c(C(=O)Nc2ccsc2C(C)CC(C)C)s1` (stereo not given), the Activity entry in test [5] is “>=95%”; in test [1] it was “>=95%”; in test [6], “>=50%”; in test [3], “>=95%”.
With `CCCCCC(C)c1sccc1NC(=O)c1cn(C)nc1C(F)(F)F` (stereo not given), the Activity entry in test [1] is given as “>=95%”; in test [6], “>=50%”; in test [3] it was “>=50%”; in test [4] it was less than 95%.
For `CCC(C)C(C)c1sccc1NC(=O)c1cn(C)nc1C(F)(F)F` (stereo not given), the Activity result in test [5] is “>=50%”; in test [1], “>=95%”; in test [6], “>=95%”; in test [3], “>=95%”.
For `CCCCC(C)c1sccc1NC(=O)c1cn(C)nc1C(F)(F)F` (stereo not given), the Activity entry in test [1] is recorded as “>=95%”; in test [6], “>=50%”; in test [3], “>=95%”; in test [4] it was “>=95%”.
In the case of `CCC(CC)c1sccc1NC(=O)c1cn(C)nc1C(F)(F)F`, the Activity entry is “>=50%” in test [1], less than 95% in test [2], “>=95%” in test [3] and less than 95% in test [4].
As to `CC(C)CCc1sccc1NC(=O)c1cn(C)nc1C(F)(F)F`, the Activity result in test [1] is reported as “>=95%”; in test [6], “>=50%”; in test [3] it was “>=95%”.
In the case of `CCc1sccc1NC(=O)c1cn(C)nc1C(F)(F)F`, the Activity result in test [7] is “>=95%”.
Regarding `CCCC(C)c1sccc1NC(=O)c1cn(C)nc1C(F)(F)F` (stereo not given), the Activity entry was “>=95%” in test [1], “>=95%” in test [6], “>=95%” in test [3] and less than 95% in test [4].
For `Cn1cc(C(=O)Nc2ccsc2-c2ccccc2)c(C(F)(F)F)n1`, the Activity in test [8] was less than 95%; in test [6] it was “>=50%”; in test [3] it was “>=95%”; in test [4], less than 95%.
Regarding `CCC(C)c1sccc1NC(=O)c1cn(C)nc1C(F)(F)F` (stereo not given), the Activity entry is listed as “>=95%” in test [1], “>=50%” in test [6], “>=95%” in test [3] and less than 95% in test [4].
For `CC(C)c1sccc1NC(=O)c1cn(C)nc1C(F)(F)F`, the Activity result in test [1] is “>=95%”; in test [2] it was “>=95%”; in test [3], “>=95%”; in test [4], less than 95%.
Turning to `CCC(C)c1ccccc1NC(=O)c1cn(C)nc1C(F)(F)F` (stereo not given), the Activity entry in test [1] was “>=95%”; in test [6], “>=50%”; in test [3] it was “>=95%”; in test [4], less than 95%.
Consider `CC(C)c1ccccc1NC(=O)c1cn(C)nc1C(F)(F)F`, for which the Activity entry in test [1] is reported as “>=95%”; in test [2] it was “>=95%”; in test [3] it was “>=95%”; in test [4] it was less than 95%.
On to `CC1CC(C)(C)c2cccc(NC(=O)c3cn(C)nc3C(F)(F)F)c21` (stereo not given), for which the Activity entry in test [1] is listed as “>=95%”; in test [2], less than 95%; in test [3], “>=95%”; in test [4], less than 95%.
Consider `CC1CC(C)(C)c2cccc(NC(=O)c3cccnc3Cl)c21` (stereo not given), for which the Activity is less than 95% in test [8], less than 95% in test [2], “>=50%” in test [3] and less than 95% in test [4].
`CC1=C(C(=O)Nc2ccccc2-c2ccccc2)CCCO1`: the Activity entry is listed as “>=50%” in test [1], “>=95%” in test [6], “>=50%” in test [3] and less than 95% in test [4].
Turning to `CC1=C(C(=O)Nc2ccccc2-c2ccccc2)SCCO1`, the Activity in test [8] is on record as less than 95%; in test [6] it was “>=50%”; in test [3], “>=95%”; in test [4], less than 95%.
Regarding `O=C(Nc1ccccc1-c1ccccc1)c1nccnc1Cl`, the Activity is on record as less than 95% in test [8], “>=95%” in test [2], “>=95%” in test [3] and less than 95% in test [4].
As for `O=C(Nc1ccccc1-c1ccccc1)c1cccnc1Cl`, the Activity in test [2] is reported as less than 95%; in test [3] it was “>=50%”; in test [4], less than 95%.
Take `Cc1nc(C)c(C(=O)Nc2ccccc2-c2ccccc2)s1`: the Activity entry in test [2] was “>=95%”; in test [3] it was “>=50%”; in test [4], less than 95%.
With `Cc1ccsc1C(=O)Nc1ccccc1-c1ccccc1`, the Activity was less than 95% in test [8], “>=95%” in test [2], “>=95%” in test [3] and less than 95% in test [4].
`Cc1occc1C(=O)Nc1ccccc1-c1ccccc1`: the Activity result is recorded as “>=95%” in test [8], less than 95% in test [2], “>=95%” in test [3] and “>=95%” in test [4].
Turning to `Cc1nc(C(F)F)c(C(=O)Nc2ccccc2-c2ccccc2)s1`, the Activity was less than 95% in test [8], “>=50%” in test [6], “>=95%” in test [3] and “>=95%” in test [4].
Take `Cc1nc(C(F)(F)F)c(C(=O)Nc2ccccc2-c2ccccc2)s1`: the values for the Activity result in test [6], in test [3] and in test [4] were “>=50%”, “>=95%” and “>=95%”, respectively.
Regarding `Cc1nn(C)cc1C(=O)Nc1ccccc1-c1ccccc1`, the figures for the Activity in test [2], in test [3] and in test [4] were less than 95%, “>=50%” and less than 95%, respectively.
Turning to `Cn1cc(C(=O)Nc2ccccc2-c2ccccc2)c(C(F)(F)F)n1`, the Activity result was “>=95%” in test [8], “>=50%” in test [6], “>=95%” in test [3] and less than 95% in test [4].
As for `O=C(Nc1ccccc1-c1ccccc1)c1ccccc1Cl`, the Activity was less than 95% in test [2], “>=95%” in test [3] and less than 95% in test [4].
Regarding `CC(C)CC(C)c1sccc1NC(=O)c1cn(C)nc1C(F)(F)F` (stereo not given) [PENTHIOPYRAD], the Activity entry in test [5], in test [1], in test [6] and in test [3] was “>=95%” throughout.

For the origin of these results see ChEMBL document CHEMBL3046467, “Structure-activity relationship of carboxin-related carboxamides as fungicide” (2011).
